What was measured:
[1] = Lactate response detection of purified probe (signal with 10 mM lactate divided by signal without lactate); assay type: biochemical; details: detection signal with 10 mM lactate divided by signal without lactate; mutants of LldR(80-258)-185/189-cpYFP
Protocol: 4. After purified proteins were subjected to SDS-PAGE, probes were diluted to a protein solution having a final concentration of 5-10 μM using assay buffer (100 mm HEPES, 100 mM NaCl, pH 7.3) or phosphate buffer PBS.
(§1) 6. […] The fluorescence excitation and emission determination of the samples were done using a multifunctional fluorescence microplate reader.
Mutants of the two sites, 189 and 190, were constructed on the basis of LldR(80-258)-185/189-cpYFP. Plasmid pCDFDuet-LldR(80-258)-185/189-cpYFP was linearized by reverse PCR, mutations were introduced at mutation sites by primers, and the obtained PCR products was ligated by adding phosphorus with PNK, T4 DNA ligase, and PEG4000, transformed into BL21 (DE3), and then screened. […] Exemplary nucleic acid sequences were shown in SEQ ID No: 31 (LldR(80-258)-185/189-P189F/P190D-cpYFP).

[2] = as above; assay type: biochemical; details: M185 saturation mutants of two-site mutants of LldR(80-258)-185/189-cpYFP
[3] = Lactate concentration-gradient titration of purified probe (ratio of 420 nm to 485 nm excitation, 528 nm emission); assay type: binding; details: ratio 420 nm/485 nm excitation
Text: as §1

Substance	Responses to lactate for 189 mutant versus 190 mutant [1]	Response of the three-site mutants to lactate [2]	other results
P189N/P190Y: LldR(80-258)-185/189-cpYFP mutant	3.1		
M185F/P189H/P190D: three-site mutant of LldR(80-258)-185/189-cpYFP		8.0	
M185A/P189M/P190D: three-site mutant of LldR(80-258)-185/189-cpYFP; Table 4 row printed WD		8.4	
P189C/P190F: LldR(80-258)-185/189-cpYFP mutant	2.3		
M185L/P189M/P190D: three-site mutant of LldR(80-258)-185/189-cpYFP; Table 4 row printed WD		5.6	
M185S/P189H/P190D: three-site mutant of LldR(80-258)-185/189-cpYFP		7.0	
P189N/P190F: LldR(80-258)-185/189-cpYFP mutant	2.3		
P189S: LldR(80-258)-185/189-cpYFP mutant	3.3		
M185L/P189H/P190D: three-site mutant of LldR(80-258)-185/189-cpYFP		15.3	
M185V/P189H/P190D: three-site mutant of LldR(80-258)-185/189-cpYFP		6.2	
P189N: LldR(80-258)-185/189-cpYFP mutant	2.1		
P189F/P190D: LldR(80-258)-185/189-cpYFP mutant	13.4		
P189M/P190D: LldR(80-258)-185/189-cpYFP mutant	7.0		
P189C/P190Y: LldR(80-258)-185/189-cpYFP mutant	4.0		magnitude of change [3]: 4.3 fold; Kd ([3]; read-out: Kd (binding constant)): 41 µM
P189F/P190H: LldR(80-258)-185/189-cpYFP mutant	3.7		
P189H/P190R: LldR(80-258)-185/189-cpYFP mutant	3.2		
P189H/P190D: LldR(80-258)-185/189-cpYFP mutant	8.9		
P189/P190(WT): lactate optical probe, cpYFP inserted at 185/189 of LldR(80-258), unmutated	0.2		
P189R/P190I: LldR(80-258)-185/189-cpYFP mutant	3.5		

— patent US20230203506A1, “LACTIC ACID OPTICAL PROBE, PREPARATION METHOD THEREFOR AND APPLICATION THEREOF” (East China University of Science and Technology, priority 2019, published 2023)
